Reference: US5182289A, “Heterobicyclic compounds having antiinflammatory activity” (Schering Corporation, priority 1990, dated 1993)
Read-outs that look alike come from different tables or passages of the source.

How the values were obtained:
Format in all cases: in vivo, male rats
[1] = system: Reversed Passive Arthus Reaction (RPAR) in the pleural cavity; test: Reversed Passive Arthus Reaction (RPAR) in the pleural cavity: cells and fluid; details: Rattus norvegicus, 4 h; for inhibition in vivo at 25 mg/kg: dose 25 mpk; for inhibition in vivo at 20 mg/kg: dose 20 mpk
Description: (§1) Reversed Passive Arthus Reaction (RPAR) Assay
(§2) Groups of 4 male rats were injected in the penile vein with antigen (1 mg BSA in 0.2 mL of saline per rat) and 0.5 hour later injected in the pleural cavity with antibody (1.0 mg antibody protein in the IgG fraction of rabbit anti-BSA in 0.2 mL). […] After 4 hours the animals were killed with CO2, and the pleural cavities were opened and the exudate drained into a graduated conical glass centrifuge tube containing indomethacin (1.8 ug) and nordihydroguaiaretic acid (NDGA) (15 ug) to block ex vivo metabolite synthesis. The volume of the exudate was measured. The cavity was then washed out with saline-EDTA to achieve a final volume of 5.0 mL. The number of cells were determined in a Colulter Counter. The cells were spun-down (1000×g) and the exudate supernatant was added to 4 volumes of 95% ethanol and samples were kept on ice for 30 minutes. After removal of the protein precipitate (2,500×g) the ethanol extract of the exudate was dried under N2 and then stored at -20° C. For radioimmunoassay (RIA) analysis the samples were redissolved in water to a volume of 1 mL per rat. Utilizing internally spiked samples, recovery of TXB2 (tritiated thromboxane B2) and LTE4 (tritiated leukotriene-E4) from exudates was determined to be 84±2% (SEM) and 89±2% (N=4), respectively. Exudate samples were directly assayed in duplicate with the commercial ^3 H-TXB2 RIA kit from New England Nuclear and the ^3 H-LTC4 /D4 /E4 kit from Amersham. The assay was validated using reversed-phase HPLC analysis of LTs in the standard procedure described by M. W. Musch, R. W. Bryant, C. Coscollaela, R. F. Myers and M. I. Siegel, Prostaglandins, Vol. 29, pp 405-430 (1985). Samples of ethanol exudate extract were "spiked" with ^3 H-LTs to follow HPLC purification and recovery.

5-LO = test: Reversed Passive Arthus Reaction (RPAR) in the pleural cavity: LTE-4 in exudate
Description: as §1, §2

CO (cyclooxygenase) = test: Reversed Passive Arthus Reaction (RPAR) in the pleural cavity: TXB-2 in exudate
Description: as §1, §2

[2] = read-out: RPAR-Pleural Cavity % Inhibition cells
[3] = read-out: RPAR-Pleural Cavity % Inhibition fluid

## CN1C(=O)C(C)(C)c2cccnc21 [Compound 3, 1,3-dihydro-1,3,3-trimethyl-2H-pyrrolo[2,3-b]pyridin-2-one]
[1]; [2]
  inhibition in vivo at 25 mg/kg: 69%
[1]; [3]
  inhibition in vivo at 25 mg/kg: 53%
5-LO; dose 25 mpk
  RPAR-Pleural Cavity % Inhibition LTE-4: 62%
CO (cyclooxygenase); dose 25 mpk
  RPAR-Pleural Cavity % Inhibition TXB-2: 17%

## CC1(C)C(=O)N(c2cccc(Cl)c2)c2ncccc21 [Compound 5, 1-(3-chlorophenyl)-1,3-dihydro-3,3-dimethyl-2H-pyrrolo[2,3-b]pyridin-2-one]
[1]; [2]
  inhibition in vivo at 25 mg/kg: 51%
[1]; [3]
  inhibition in vivo at 25 mg/kg: 49%
5-LO; dose 25 mpk
  RPAR-Pleural Cavity % Inhibition LTE-4: 59%
CO (cyclooxygenase); dose 25 mpk
  RPAR-Pleural Cavity % Inhibition TXB-2: 62%

## CC1(C)C(=O)N(c2ccc(Cl)c(Cl)c2)c2ncccc21 [Compound 6, 1-(3,4-dichlorophenyl)-1,3-dihydro-3,3-dimethyl-2H-pyrrolo[2,3-b]pyridin-2-one]
[1]; [2]
  inhibition in vivo at 25 mg/kg: 26%
[1]; [3]
  inhibition in vivo at 25 mg/kg: 25%
5-LO; dose 25 mpk
  RPAR-Pleural Cavity % Inhibition LTE-4: 46%
CO (cyclooxygenase); dose 25 mpk
  RPAR-Pleural Cavity % Inhibition TXB-2: 44%

## COc1ccc(N2C(=O)C(C)(C)c3cccnc32)cc1 [Compound 8, 1,3-dihydro-3,3-dimethyl-1-(4-methoxyphenyl)-2H-pyrrolo[2,3-b]pyridin-2-one]
[1]; [2]
  inhibition in vivo at 25 mg/kg: 63%
[1]; [3]
  inhibition in vivo at 25 mg/kg: 42%
5-LO; dose 25 mpk
  RPAR-Pleural Cavity % Inhibition LTE-4: 0%
CO (cyclooxygenase); dose 25 mpk
  RPAR-Pleural Cavity % Inhibition TXB-2: 34%

## CC1(C)C(=O)N(c2ccc(F)cc2)c2ncccc21 [Compound 9, 1,3-dihydro-3,3-dimethyl-1-(4-fluorophenyl)-2H-pyrrolo[2,3-b]pyridin-2-one]
[1]; [2]
  inhibition in vivo at 20 mg/kg: 70%
[1]; [3]
  inhibition in vivo at 20 mg/kg: 43%
5-LO; dose 20 mpk
  RPAR-Pleural Cavity % Inhibition LTE-4: 36%
CO (cyclooxygenase); dose 20 mpk
  RPAR-Pleural Cavity % Inhibition TXB-2: 53%
